Measured values published in patent US10646594B2, “Deuterated metabolic water precursor for detecting and treating diseased tissue” (CASE WESTERN RESERVE UNIVERSITY, priority 2009, dated 2020).

Tests used:
malignant cells = details: Kushner et al. 1999; cited from earlier work
[1] = DMR measurement of deuterated glucose metabolism in mice; type: in vivo, mice (C57/BL6); details: mice injected iv or ip with 8.9 mg deuterated glucose, whole-body DMR spectrum
Method: (§1) DMR measurements (AQ 0.2s; TR 0.3s; NS 128; LB 30; 38s/spectrum) were performed at 9.4 T on a wide bore (89 mm) Bruker Avance microimager equipped with a multinuclear probe. A set of experiments was performed on three male mice (C57/BL6) and another set, on Tenebrio molitor larvae. Mouse 1 (25 g), was injected iv with 8.9 mg deuterated glucose (ISOTEC) dissolved in 0.4 ml saline solution; it was sacrificed after 1.5 hr and, after dissection, its whole body (except fur and skin) was placed in a 20 mm NMR tube for running the DMR spectrum (shown in FIG. 4, upper trace). Mouse 2, (32 g) injected ip with the same amount of glucose-d7 as mouse 1 was sacrificed after 3.5 hr, and yielded the spectrum seen in the same FIG. 4, second trace. Tenebrio molitor larvae were starved for several days, then placed in a 20 mm NMR tube together with food consisting of 0.4 g bran wetted with an aqueous solution of deuterated glucose.

[2] = DMR measurement of deuterated glucose metabolism in Tenebrio molitor larvae; type: in vivo; details: starved larvae fed bran wetted with aqueous deuterated glucose, 2H spectrum
Method: as §1
In our approach, the excellent tracer quality of deuterium (natural abundance 0.015%) is combined with the fact that only two well separated peaks are to be measured; that of nascent metabolic water, and that of the aliphatic chain of fatty acids. Thus, in spite of their large line widths (100-230 Hz) due to the electric quadrupole moment and unfavorable correlation times, the spectra can be interpreted in a quantitative manner. […]

SMILES	toxicity to malignant cells compared with normal animal cells (malignant cells)	consumption of deuterated glucose ([1]; sacrificed after 1.5 hr or 3.5 hr)	metabolic fate of deuterated glucose (metabolic water / fat) [1]	incorporation of D-label into fat [2]	metabolism of glucose into deuterated water ([2]; end of the experiment)
[2H]O[2H] [D2O]	more toxic to malignant cells than normal animal cells				
[2H]C1(O)O[C@]([2H])(C([2H])([2H])O)[C@@]([2H])(O)[C@]([2H])(O)[C@@]1([2H])O (stereo partly drawn) [deuterated glucose, D-7 Glucose[1,2,3,4,5,6,6-2H7]]		all deuterated glucose was consumed by the mice	most of it provided protons for the formation of metabolic water, part of it was metabolized into fat	did not incorporate a visible amount of D-label into fat	all glucose was metabolized into deuterated water
